From ChEMBL document CHEMBL5291721, “A preclinical secondary pharmacology resource illuminates target-adverse drug reaction associations of marketed drugs” (Nat Commun, 2023)

Assays:
[1] = molecular target: T1, 5-hydroxytryptamine receptor 3A (Homo sapiens, UniProt P46098); assay type: functional
T1 sequence (P46098 whole entry): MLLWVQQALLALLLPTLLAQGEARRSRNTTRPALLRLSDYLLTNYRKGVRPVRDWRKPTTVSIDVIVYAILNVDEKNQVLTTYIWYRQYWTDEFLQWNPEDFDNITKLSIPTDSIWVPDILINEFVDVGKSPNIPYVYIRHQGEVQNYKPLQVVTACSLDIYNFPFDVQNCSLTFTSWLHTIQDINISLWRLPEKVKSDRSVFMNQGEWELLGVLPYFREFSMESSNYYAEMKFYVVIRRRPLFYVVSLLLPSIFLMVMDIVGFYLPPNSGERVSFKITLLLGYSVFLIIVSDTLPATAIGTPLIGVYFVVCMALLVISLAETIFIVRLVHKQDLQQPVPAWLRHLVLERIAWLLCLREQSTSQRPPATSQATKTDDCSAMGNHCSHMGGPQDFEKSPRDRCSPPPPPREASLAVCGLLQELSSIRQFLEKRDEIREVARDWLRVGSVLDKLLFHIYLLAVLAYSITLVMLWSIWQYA

[2] = molecular target: 3',5'-cyclic-AMP phosphodiesterase 4D (Homo sapiens, UniProt Q08499); assay type: functional
3',5'-cyclic-AMP phosphodiesterase 4D, sequence (Q08499 whole entry): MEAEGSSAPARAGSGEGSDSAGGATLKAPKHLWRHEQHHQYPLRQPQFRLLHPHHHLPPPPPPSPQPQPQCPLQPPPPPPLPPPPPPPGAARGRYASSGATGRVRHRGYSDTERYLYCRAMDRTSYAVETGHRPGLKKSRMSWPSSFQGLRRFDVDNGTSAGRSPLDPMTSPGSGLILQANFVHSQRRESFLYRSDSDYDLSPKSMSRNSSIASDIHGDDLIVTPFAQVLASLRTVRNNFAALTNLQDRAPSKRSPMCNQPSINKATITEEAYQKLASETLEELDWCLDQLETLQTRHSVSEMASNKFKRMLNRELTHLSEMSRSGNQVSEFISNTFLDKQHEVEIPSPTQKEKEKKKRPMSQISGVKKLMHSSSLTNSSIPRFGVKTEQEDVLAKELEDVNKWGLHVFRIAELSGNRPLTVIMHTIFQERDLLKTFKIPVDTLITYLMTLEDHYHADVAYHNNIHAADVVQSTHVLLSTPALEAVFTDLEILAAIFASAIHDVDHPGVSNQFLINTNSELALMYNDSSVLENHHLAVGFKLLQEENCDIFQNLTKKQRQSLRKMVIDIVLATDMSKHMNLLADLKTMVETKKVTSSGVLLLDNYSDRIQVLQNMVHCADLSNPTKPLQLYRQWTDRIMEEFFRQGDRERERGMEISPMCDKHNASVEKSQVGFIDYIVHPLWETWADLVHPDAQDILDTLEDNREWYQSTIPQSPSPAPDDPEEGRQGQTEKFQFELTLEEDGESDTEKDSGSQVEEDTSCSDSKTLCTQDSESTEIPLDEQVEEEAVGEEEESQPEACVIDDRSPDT

[3] = molecular target: Delta-type opioid receptor (Homo sapiens, UniProt P41143)
Delta-type opioid receptor, sequence (P41143 whole entry): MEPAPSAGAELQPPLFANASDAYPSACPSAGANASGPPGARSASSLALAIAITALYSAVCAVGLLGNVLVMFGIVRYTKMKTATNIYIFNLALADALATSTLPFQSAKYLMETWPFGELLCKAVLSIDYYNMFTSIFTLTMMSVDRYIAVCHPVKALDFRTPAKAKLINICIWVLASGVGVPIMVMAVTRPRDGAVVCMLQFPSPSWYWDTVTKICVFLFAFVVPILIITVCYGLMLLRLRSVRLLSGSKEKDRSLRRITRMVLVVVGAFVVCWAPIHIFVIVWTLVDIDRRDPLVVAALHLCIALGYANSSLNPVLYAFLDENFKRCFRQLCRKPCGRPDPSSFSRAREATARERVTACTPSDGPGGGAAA

D(1A) dopamine receptor = D(1A) dopamine receptor (Homo sapiens, UniProt P21728); assay type: functional, cell-based
D(1A) dopamine receptor, sequence (P21728 whole entry): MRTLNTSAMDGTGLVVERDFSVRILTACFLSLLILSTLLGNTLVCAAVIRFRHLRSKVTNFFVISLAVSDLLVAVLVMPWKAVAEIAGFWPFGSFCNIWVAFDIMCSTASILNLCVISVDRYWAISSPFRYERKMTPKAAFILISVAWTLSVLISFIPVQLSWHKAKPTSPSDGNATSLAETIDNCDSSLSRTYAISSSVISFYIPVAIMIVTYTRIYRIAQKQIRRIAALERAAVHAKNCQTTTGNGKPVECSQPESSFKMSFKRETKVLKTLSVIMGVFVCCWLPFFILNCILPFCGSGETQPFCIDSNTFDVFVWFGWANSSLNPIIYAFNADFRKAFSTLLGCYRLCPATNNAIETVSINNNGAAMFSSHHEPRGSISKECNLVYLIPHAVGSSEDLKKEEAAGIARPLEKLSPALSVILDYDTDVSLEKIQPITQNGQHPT

[4] = molecular target: T2, 5-hydroxytryptamine receptor 2C (Homo sapiens, UniProt P28335)
T2 sequence (P28335 whole entry): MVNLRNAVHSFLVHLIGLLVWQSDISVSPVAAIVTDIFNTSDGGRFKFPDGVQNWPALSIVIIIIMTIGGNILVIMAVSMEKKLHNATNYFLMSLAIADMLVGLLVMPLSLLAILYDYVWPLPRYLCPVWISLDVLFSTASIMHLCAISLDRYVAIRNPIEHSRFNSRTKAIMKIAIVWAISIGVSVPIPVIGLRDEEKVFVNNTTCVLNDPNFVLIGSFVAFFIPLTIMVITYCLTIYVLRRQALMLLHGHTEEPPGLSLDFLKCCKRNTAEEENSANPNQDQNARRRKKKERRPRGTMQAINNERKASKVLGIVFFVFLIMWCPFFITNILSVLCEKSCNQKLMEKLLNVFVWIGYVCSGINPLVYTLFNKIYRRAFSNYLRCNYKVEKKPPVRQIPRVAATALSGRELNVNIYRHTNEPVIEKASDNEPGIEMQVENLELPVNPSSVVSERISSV

[5] = molecular target: T3, Cholecystokinin receptor type A (Homo sapiens, UniProt P32238)
T3 sequence (P32238 whole entry): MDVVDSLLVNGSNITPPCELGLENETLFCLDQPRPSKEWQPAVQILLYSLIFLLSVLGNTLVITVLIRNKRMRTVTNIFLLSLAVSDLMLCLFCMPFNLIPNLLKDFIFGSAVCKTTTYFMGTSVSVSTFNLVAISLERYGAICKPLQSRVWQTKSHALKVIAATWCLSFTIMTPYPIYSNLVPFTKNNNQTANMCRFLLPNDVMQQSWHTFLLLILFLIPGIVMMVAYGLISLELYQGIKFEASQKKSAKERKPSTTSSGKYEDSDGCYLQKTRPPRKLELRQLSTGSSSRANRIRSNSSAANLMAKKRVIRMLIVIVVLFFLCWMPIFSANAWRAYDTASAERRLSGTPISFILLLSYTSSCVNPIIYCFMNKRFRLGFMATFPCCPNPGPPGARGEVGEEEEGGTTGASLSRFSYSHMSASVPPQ

[6] = molecular target: 5-hydroxytryptamine receptor 2B (Homo sapiens, UniProt P41595); assay type: functional, cell-based
5-hydroxytryptamine receptor 2B, sequence (P41595 whole entry): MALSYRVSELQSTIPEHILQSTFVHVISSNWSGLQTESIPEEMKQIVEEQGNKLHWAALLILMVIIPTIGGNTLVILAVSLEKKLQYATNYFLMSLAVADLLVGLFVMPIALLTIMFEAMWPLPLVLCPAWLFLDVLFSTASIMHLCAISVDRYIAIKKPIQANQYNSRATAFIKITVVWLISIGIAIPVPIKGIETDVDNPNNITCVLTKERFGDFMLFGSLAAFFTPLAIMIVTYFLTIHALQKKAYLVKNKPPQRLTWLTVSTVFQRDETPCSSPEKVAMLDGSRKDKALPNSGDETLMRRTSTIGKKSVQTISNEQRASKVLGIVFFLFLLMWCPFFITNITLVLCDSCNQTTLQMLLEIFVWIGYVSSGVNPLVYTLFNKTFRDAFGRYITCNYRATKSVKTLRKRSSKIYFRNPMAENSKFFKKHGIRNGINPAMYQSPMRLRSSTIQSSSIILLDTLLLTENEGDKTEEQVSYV

[7] = molecular target: T4, Alpha-2A adrenergic receptor (Homo sapiens, UniProt P08913); assay type: functional, cell-based
T4 sequence (P08913 whole entry): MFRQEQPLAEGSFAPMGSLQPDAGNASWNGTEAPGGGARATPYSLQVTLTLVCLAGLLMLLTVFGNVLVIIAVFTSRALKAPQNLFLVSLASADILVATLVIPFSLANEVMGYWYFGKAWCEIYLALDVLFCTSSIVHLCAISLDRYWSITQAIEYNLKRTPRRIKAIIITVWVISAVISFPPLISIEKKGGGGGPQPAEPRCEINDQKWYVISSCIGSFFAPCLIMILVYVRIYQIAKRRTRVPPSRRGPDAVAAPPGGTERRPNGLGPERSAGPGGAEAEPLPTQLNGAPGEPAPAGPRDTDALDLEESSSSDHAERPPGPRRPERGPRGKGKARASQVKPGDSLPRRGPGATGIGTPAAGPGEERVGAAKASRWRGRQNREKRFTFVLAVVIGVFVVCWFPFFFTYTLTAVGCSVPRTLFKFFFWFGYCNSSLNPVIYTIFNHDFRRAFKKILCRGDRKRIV

Adenosine receptor A3 = molecular target: T5, Adenosine receptor A3 (Homo sapiens, UniProt P0DMS8)
T5 sequence (P0DMS8 whole entry): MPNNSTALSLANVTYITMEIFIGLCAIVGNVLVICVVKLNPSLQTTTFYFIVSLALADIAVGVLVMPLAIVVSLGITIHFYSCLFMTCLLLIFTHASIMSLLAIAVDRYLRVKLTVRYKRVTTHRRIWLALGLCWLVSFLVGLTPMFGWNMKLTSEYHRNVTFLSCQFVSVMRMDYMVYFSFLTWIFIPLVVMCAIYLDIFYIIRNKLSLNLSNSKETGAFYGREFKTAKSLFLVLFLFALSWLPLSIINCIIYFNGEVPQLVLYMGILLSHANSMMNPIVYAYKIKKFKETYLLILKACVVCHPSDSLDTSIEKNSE

[8] = molecular target: cGMP-inhibited 3',5'-cyclic phosphodiesterase 3A (Homo sapiens, UniProt Q14432); assay type: functional
cGMP-inhibited 3',5'-cyclic phosphodiesterase 3A, sequence (Q14432 whole entry): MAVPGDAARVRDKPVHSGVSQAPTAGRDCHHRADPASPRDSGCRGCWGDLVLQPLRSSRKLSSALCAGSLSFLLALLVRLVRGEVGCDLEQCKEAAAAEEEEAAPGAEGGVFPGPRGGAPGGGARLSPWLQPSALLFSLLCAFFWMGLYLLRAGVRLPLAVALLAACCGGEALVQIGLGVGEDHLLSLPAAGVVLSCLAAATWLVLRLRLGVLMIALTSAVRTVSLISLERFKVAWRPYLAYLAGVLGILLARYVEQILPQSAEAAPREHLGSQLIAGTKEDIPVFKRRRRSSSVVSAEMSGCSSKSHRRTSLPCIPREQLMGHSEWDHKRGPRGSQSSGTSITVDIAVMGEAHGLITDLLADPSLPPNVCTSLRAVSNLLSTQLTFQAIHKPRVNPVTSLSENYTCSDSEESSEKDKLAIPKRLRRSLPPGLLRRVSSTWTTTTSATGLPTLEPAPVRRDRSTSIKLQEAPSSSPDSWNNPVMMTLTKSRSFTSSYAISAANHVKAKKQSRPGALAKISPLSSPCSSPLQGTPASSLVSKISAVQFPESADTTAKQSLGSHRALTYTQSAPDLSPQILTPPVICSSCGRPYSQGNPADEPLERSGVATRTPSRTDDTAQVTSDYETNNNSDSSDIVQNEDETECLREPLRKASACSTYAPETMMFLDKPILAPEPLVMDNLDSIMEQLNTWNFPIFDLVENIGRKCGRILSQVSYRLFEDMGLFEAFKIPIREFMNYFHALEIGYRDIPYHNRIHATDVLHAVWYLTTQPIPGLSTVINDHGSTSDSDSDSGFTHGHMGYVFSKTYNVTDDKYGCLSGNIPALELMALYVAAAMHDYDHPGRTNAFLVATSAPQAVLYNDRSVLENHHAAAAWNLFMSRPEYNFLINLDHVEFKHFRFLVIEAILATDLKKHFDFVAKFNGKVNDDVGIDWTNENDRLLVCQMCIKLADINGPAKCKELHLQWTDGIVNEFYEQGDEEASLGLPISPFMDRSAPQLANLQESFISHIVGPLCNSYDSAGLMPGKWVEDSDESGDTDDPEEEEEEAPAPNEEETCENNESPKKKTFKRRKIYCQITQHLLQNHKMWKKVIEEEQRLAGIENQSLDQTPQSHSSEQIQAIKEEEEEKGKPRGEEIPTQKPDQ

[9] = molecular target: Growth hormone secretagogue receptor type 1 (Homo sapiens, UniProt Q92847)
Growth hormone secretagogue receptor type 1, sequence (Q92847 whole entry): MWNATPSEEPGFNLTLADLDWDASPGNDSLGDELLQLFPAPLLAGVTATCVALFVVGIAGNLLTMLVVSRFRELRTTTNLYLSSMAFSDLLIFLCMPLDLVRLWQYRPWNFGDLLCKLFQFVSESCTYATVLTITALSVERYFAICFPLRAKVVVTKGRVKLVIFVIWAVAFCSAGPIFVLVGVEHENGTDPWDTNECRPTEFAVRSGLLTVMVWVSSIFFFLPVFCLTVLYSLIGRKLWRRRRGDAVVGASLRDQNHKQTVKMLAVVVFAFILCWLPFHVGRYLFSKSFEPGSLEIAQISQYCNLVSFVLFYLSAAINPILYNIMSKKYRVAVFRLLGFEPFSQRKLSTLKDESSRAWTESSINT

Melanocortin receptor 3 = Melanocortin receptor 3 (Homo sapiens, UniProt P41968)
Melanocortin receptor 3, sequence (P41968 whole entry): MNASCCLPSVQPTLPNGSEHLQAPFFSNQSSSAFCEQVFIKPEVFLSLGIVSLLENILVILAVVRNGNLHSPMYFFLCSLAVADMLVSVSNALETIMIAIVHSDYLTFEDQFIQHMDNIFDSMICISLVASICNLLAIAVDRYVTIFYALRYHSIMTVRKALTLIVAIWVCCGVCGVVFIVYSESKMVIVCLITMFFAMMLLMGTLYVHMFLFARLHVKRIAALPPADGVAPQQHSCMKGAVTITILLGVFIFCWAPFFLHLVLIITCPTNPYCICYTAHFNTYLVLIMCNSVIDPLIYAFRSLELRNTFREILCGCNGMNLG

Motilin receptor = Motilin receptor (Homo sapiens, UniProt O43193)
Motilin receptor, sequence (O43193 whole entry): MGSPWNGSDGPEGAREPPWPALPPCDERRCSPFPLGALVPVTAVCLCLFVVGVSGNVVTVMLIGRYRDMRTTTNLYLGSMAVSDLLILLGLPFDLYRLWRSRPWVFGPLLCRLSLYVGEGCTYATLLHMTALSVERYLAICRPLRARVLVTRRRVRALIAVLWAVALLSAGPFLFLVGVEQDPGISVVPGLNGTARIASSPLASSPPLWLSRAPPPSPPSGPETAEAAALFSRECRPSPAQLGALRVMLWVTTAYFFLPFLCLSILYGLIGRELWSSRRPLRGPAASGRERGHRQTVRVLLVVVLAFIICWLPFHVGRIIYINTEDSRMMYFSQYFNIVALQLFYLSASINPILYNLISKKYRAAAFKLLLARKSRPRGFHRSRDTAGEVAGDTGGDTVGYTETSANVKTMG

[10] = molecular target: T4, Alpha-2A adrenergic receptor; assay type: functional, cell-based; remark: listed apart in the source
[11] = molecular target: Voltage-gated inwardly rectifying potassium channel KCNH2 (Homo sapiens, UniProt Q12809); assay type: functional; conditions: read-out: AC50
Further: assay procedure not described here.

Structure (SMILES)	AC50 [1] [µM]	AC50 [2] [µM]	AC50 [3] [µM]	AC50 (D(1A) dopamine receptor) [µM]	AC50 [4] [µM]	AC50 [5] [µM]	AC50 [6] [µM]	AC50 [7] [µM]	AC50 (Adenosine receptor A3) [µM]	AC50 [8] [µM]	AC50 [9] [µM]	AC50 (Melanocortin receptor 3) [µM]	AC50 (Motilin receptor) [µM]	AC50 [10] [µM]	AC50 [11] [µM]
CCOC(=O)Nc1ccc(NCc2ccc(F)cc2)nc1N [FLUPIRTINE]	> 30	> 30	> 30	> 30	> 10	> 30	> 30	> 30	21	> 30	> 30	> 30	> 30	23	27
NCC1(CC(=O)O)CCCCC1 [GABAPENTIN]	> 30	> 30	> 30	> 30	> 30	> 30	> 30	> 30	> 30	> 30	> 30	> 30	> 30	> 30	> 30
CCN(CCO)CCCC(C)Nc1ccnc2cc(Cl)ccc12 (stereo not given) [HYDROXYCHLOROQUINE]	> 30	> 30	> 30	> 10	> 30	> 10	> 10	> 10	> 10	> 30	> 10	> 10	> 10	> 10	7.4
C[C@@H](O)[C@H]1C(=O)N2C(C(=O)O)=C(SCCN=CN)C[C@H]12 [IMIPENEM ANHYDROUS]	> 300	> 300	> 300	> 300	> 300	> 300	> 300	> 300	180	> 300	> 300	> 300	> 300	> 300	> 30
O=C(c1ccccc1)c1ccc2n1CCC2C(=O)O (stereo not given) [KETOROLAC]	> 30	> 30	> 30	> 30	> 30	> 10	> 30	> 30	> 10	> 30	> 10	> 10	> 10	> 30	> 30
N[C@@H](Cc1cc(I)c(Oc2cc(I)c(O)c(I)c2)c(I)c1)C(=O)O [LEVOTHYROXINE]	> 30	1.8	> 30	> 30	> 30	> 30	> 30	> 30	11	> 30	> 30	> 30	> 30	> 30	> 30
CNC1(C)C2CCC(C2)C1(C)C (stereo not given) [MECAMYLAMINE]	> 30	> 30	> 30	> 10	> 30	> 10	> 10	> 10	> 10	> 30	> 10	> 10	> 10	> 10	> 30
CCC1(c2ccccc2)C(=O)NCNC1=O [PRIMIDONE]	> 30	> 30	> 30	> 10	> 30	> 10	> 10	> 10	> 10	> 30	> 10	> 10	> 10	> 10	> 30
CC(=O)SCC(Cc1ccccc1)C(=O)NCC(=O)OCc1ccccc1 (stereo not given) [RACECADOTRIL]	> 30	> 30	> 30	> 30	> 30	> 30	> 30	> 30	> 30	> 30	> 30	> 30	> 30	> 30	> 30
CCOc1ccccc1OCCN[C@H](C)Cc1ccc(OC)c(S(N)(=O)=O)c1 [TAMSULOSIN]	> 30	> 30	> 30	> 10	> 30	> 30	> 10	> 30	> 30	> 30	> 30	> 30	> 10	4.77	6.95
C[C@H](Cn1cnc2c(N)ncnc21)OCP(=O)(O)O [TENOFOVIR ANHYDROUS]	> 30	> 30	> 10	> 30	> 30	> 30	> 30	> 30	> 30	> 30	> 30	> 30	> 30	> 30	> 30
COc1cc2c(cc1OC)C1CC(=O)C(CC(C)C)CN1CC2 (stereo not given) [TETRABENAZINE]	> 30	> 30	> 30	> 30	> 30	> 30	> 30	> 30	> 30	> 30	> 30	> 30	> 30	18	> 30
CC(C)(CO)c1cc2cc(NC(=O)C3(c4ccc5c(c4)OC(F)(F)O5)CC3)c(F)cc2n1C[C@@H](O)CO [TEZACAFTOR]	> 30	8.7	> 30	> 30	> 30	> 30	> 30	> 30	> 30	> 30	> 30	> 30	> 30	> 30	> 30
